From patent US20240076327A1 (priority 2020, published 2024)
Where a SMILES comes first, the peptide text is derived from it. Bridges are numbered along the chain shown (N, C = ends). Where no end group is shown, it is not given here.

Tests used:
physchem = conditions: buffer, pH 9
[1] = buffer, 0 h, pH 9

Molecule: GSQYCVPVDQPCSLNTQPCCDDATCTQERNENGHTVYYCRA (disulfide 5-20, 12-25, 19-39) [GS-ω/κ-hexatoxin-Hv1h]
- remaining at 24 h (physchem): 94%
- remaining at 48 h (physchem): 91%
- remaining at 72 h (physchem): 82%
- remaining at 96 h (physchem): 83%
- remaining at 120 h (physchem): 83%
- remaining at 144 h (physchem): 81%
- remaining at 168 h (physchem): 69%
- remaining at 360 h (physchem): 50%
- observed overall stability (percentage of remaining parent peak) [1]: 100%

Molecule: CC[C@H](C)[C@H](NC(=O)[C@H](C)N)C(=O)N[C@H]1CSSC[C@@H]2NC(=O)[C@@H]3CSSC[C@@H](C(=O)N[C@@H](CCCNC(=N)N)C(=O)N[C@@H](CCCCN)C(=O)N[C@@H](CC(=O)O)C(=O)N[C@@H](CCC(=O)O)C(=O)N4CCC[C@H]4C(=O)O)NC(=O)[C@H](Cc4ccc(O)cc4)NC(=O)[C@H](CO)NC(=O)[C@H](C(C)C)NC(=O)CNC(=O)[C@H](CC(N)=O)NC(=O)[C@H](CO)NC(=O)[C@H](CCC(=O)O)NC(=O)[C@H](C)NC(=O)[C@H](CCCCN)NC(=O)[C@H](CSSC[C@H](NC(=O)[C@@H]4CCCN4C(=O)[C@H](CCCNC(=N)N)NC(=O)[C@H](CC(=O)O)NC(=O)[C@H](C)NC(=O)CNC(=O)[C@H]([C@@H](C)O)NC1=O)C(=O)N[C@@H](C)C(=O)N[C@@H](C)C(=O)N[C@H]1CSSC[C@H](NC1=O)C(=O)N1CCC[C@H]1C(=O)N3)NC(=O)[C@H](CO)NC(=O)[C@H]([C@@H](C)O)NC(=O)CNC(=O)[C@@H]1CCCN1C2=O [κ-hexatoxin-Hv1c] (H-AICTGADRPCAACCPCCPGTSCKAESNGVSYCRKDEP-OH; disulfide 3-17, 10-22, 13-14, 16-32)
- remaining at 24 h (physchem): 91%
- remaining at 48 h (physchem): 80%
- remaining at 72 h (physchem): 75%
- remaining at 96 h (physchem): 61%
- remaining at 120 h (physchem): 51%
- remaining at 144 h (physchem): 41%
- remaining at 168 h (physchem): 30%
- remaining at 360 h (physchem): 9%
- observed overall stability (percentage of remaining parent peak) [1]: 100%
